Measured values published in article PMC9404989, “Design and Evaluation of Short Bovine Lactoferrin-Derived Antimicrobial Peptides against Multidrug-Resistant Enterococcus faecium” (Antibiotics, 2022).
Several values for one entry are separate records, joined by “and”; a condition that tells them apart may be missing. Equal values may be shown once. No end group written: not given here.

Tested on: E. faecium strain C68 primary metabolites
Assay: Targeted LC-MS/MS metabolomics
Type: cell-based, Enterococcus faecium
Settings: 5L at 2× MIC, 30 min vs control, n = 3
Description: For the metabolomics sample preparation, we used exponential cultures of E. faecium strain C68 grown in BHI media adjusted to OD600 = 0.5. We treated 10 mL of this bacterial culture with 2× MIC of peptide 5L or water (for bacterial control) for 30 min at 37 °C (n = 3, technical replicates). After that, we washed the bacteria 3× times with PBS and stored the pellet at −20 °C. At a later stage, to each cell pellet, we added 0.2 mL of 2-propanol: 100 mM of NH4HCO3, pH 7.4 (1:1 v/v), and sonicated the cells. For spiking, we added 20 µL of IS to each sample and vortexed them. Subsequently, we added 1.0 mL of methanol for deproteinization and cooled the mixture at −20 °C for 10 min. After centrifugation for 10 min at 14,000× g at 4 °C, we transferred the supernatants into glass tubes and dried them under a stream of nitrogen at 40 °C. Finally, we dissolved the residues in 100 µL of water and injected 3 µL of this solution into an LC-MS/MS 8060 system (Shimadzu Scientific Inc., Columbia, MD, USA), equipped with a DUIS source operated in both positive and negative electrospray ionization modes. For the liquid chromatographic analysis, we used the Nexera UPLC system (Shimadzu Scientific Inc., Columbia, MD, USA). We quantitated primary metabolites (~150) following an established LC-MS/MS method.

In the case of RRWLWLRRWLWR-NH2 [Peptide 5L], the “Fold change 2-Aminobutryc acid” value is reported as 0.480 fold, the “Fold change 4-Aminobutryc acid” value is reported as 4.319 fold and the “Fold change Adenine” value is reported as 0.311 fold. For the same substance, the “Fold change Adenylsuccinic acid” value was 0.226 fold, the “Fold change Alanine” value was 0.383 fold and the “Fold change Allantoin” value was 2.67 fold. For the same substance, the “Fold change Arginosuccinic acid” value was 0.204 fold, the “Fold change Aspartic acid” value was 0.197 fold and the “Fold change Carbamoyl aspertate” value was 2.212 fold. The “Fold change Citicoline” value was 0.233 fold, the “Fold change Citric acid” value was 0.244 fold and the “Fold change Cobalamine” value was 2.285 fold. The “Fold change Cystathionine” value was 0.369 fold, the “Fold change Cysteine” value was 0.047 fold and the “Fold change Dopa” value was 0.337 fold. The “Fold change Dopamine” value was 3.107 fold, the “Fold change Fumaric acid” value was 0.387 fold and the “Fold change Glutathione” value was 0.376 fold. For the same substance, the “Fold change Guanine” value was 0.130 fold, the “Fold change Guanosine” value was 0.275 fold and the “Fold change Histidine” value was 0.420 fold. The “Fold change Inosine” value was 0.239 fold, the “Fold change Isocitric acid” value was 0.237 fold and the “Fold change Isoleucine” value was 0.458 fold. The “Fold change Kynureine” value was 2.152 fold, the “Fold change Leucine” value was 0.373 fold and the “Fold change Malic acid” value was 0.392 fold. The “Fold change Methionine” value was 0.175 fold, the “Fold change NAD” value was 0.415 fold and the “Fold change Ornitine” value was 0.378 fold. For the same substance, the “Fold change Oxidized glutathione” value was 0.403 fold, the “Fold change Phenylalanine” value was 0.423 fold and the “Fold change Putriscine” value was 7.197 fold and 7 fold. The “Fold change S-Adenosylhomocysteine” value was 0.267 fold, the “Fold change Serine” value was 0.033 fold and 0.03 fold and the “Fold change Serotonin” value was 2.886 fold. For the same substance, the “Fold change Succinic acid” value was 0.204 fold, the “Fold change Symmetric dimethylarginine” value was 2.347 fold and the “Fold change Threonine” value was 0.384 fold. The “Fold change Thymidine” value was 0.320 fold, the “Fold change Tryptophan” value was 0.178 fold and the “Fold change Uridine” value was 0.228 fold. For the same substance, the “Fold change Valine” value was 0.433 fold and the “Fold change Xanthosine” value was 0.315 fold.
